Test results reported in patent US6552079B2, “Integrin antagonists” (Eli Lilly and Company, priority 1996, dated 2003).

Tests used:
GPIIb-IIIa = biological target: T1, GPIIb-IIIa (Homo sapiens, UniProt P05106+P08514); test: GPIIb-IIIa ELISA purified integrin binding assay (fibrinogen binding); conditions: inhibition of biotinylated fibrinogen binding to immobilized purified platelet GPIIb-IIIa; read-out: GPIIbIIIa ELISA (IC50 μM)
T1 construct: Purified platelet GPIIb-IIIa was prepared by Fitzgerald, L. A., et al; from tissue; host or cells: platelets
T1 sequence (P08514 32-887 limits assumed): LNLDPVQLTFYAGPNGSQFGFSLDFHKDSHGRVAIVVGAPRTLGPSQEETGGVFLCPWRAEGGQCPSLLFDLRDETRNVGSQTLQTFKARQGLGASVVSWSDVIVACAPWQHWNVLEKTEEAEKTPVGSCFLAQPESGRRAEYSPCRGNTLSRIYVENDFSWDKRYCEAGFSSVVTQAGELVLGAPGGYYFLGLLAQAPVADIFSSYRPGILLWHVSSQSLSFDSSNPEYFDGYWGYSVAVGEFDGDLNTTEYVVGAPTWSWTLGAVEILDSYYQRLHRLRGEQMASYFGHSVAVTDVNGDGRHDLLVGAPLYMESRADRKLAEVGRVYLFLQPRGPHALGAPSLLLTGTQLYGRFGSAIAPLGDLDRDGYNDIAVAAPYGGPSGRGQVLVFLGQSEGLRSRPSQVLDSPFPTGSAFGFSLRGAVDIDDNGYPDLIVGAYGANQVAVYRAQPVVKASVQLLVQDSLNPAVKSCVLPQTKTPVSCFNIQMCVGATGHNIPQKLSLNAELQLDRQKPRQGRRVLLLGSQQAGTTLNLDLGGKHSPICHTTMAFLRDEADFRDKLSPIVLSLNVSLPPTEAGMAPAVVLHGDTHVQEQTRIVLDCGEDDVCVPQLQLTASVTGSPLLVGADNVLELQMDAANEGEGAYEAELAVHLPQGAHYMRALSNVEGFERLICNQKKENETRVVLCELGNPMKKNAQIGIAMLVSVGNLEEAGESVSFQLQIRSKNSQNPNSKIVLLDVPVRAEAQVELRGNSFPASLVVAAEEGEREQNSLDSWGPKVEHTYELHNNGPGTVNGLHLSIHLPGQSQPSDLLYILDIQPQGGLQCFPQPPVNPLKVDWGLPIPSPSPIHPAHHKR
T1 sequence (P08514 891-1039 partner limits assumed): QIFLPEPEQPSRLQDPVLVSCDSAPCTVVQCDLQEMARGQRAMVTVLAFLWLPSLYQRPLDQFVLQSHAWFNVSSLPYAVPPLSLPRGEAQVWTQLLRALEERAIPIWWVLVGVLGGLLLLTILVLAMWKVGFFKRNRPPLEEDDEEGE
T1 sequence (P05106 27-788): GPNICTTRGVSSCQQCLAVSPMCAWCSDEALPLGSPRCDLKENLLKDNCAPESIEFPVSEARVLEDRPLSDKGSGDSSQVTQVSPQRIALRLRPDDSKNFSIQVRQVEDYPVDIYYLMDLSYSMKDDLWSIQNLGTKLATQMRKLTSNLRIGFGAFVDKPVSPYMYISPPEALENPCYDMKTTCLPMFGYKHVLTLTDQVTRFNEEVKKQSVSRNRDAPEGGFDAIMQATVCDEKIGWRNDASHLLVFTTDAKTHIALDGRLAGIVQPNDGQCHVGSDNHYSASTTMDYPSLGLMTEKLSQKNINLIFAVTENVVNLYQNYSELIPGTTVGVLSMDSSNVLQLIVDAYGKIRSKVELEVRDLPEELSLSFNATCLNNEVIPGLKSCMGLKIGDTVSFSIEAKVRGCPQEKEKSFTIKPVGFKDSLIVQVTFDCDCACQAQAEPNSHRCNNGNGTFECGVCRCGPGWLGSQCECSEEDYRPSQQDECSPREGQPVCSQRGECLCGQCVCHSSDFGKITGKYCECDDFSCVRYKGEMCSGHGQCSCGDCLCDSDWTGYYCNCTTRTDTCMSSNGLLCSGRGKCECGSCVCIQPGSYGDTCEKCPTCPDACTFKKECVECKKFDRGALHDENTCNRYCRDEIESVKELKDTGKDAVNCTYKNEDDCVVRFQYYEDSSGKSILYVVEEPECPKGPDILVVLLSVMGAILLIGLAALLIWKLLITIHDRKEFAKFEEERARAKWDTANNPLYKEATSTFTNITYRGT
Procedure: (§1) In the following assays, GPIIb-IIIa and vitronectin receptor, αvβ3 were prepared in purified form, by methods described in Fitzgerald, L. A., et al., Anal Biochem (1985) 151: 169-177 and Smith, J. W., J. Biol Chem (1988) 263: 18726-18731 (the disclosure of which is incorporated herein by reference). GPIIb-IIIa or vitronectin receptor, αvβ3, are coated onto microtiter plates. The coated support is then contacted with fibrinogen for the GPIIb-IIIa assay, or is contacted with vitronectin for the vitronectin receptor, αvβ3 and with test materials and incubated for sufficient time to reach maximal ligand binding to immobilized integrins. The adhesive ligands fibrinogen or vitronectin were typically provided at a concentration of 2-50 nM and the test material can, if desired, be added at a series of diultions. […]
(§2) The corresponding ligands (fibrinogen, von Willebrand Factor, or vitronectin) were conjugated to biotin using commercially available reagents and standard protocols. […] After incubation, the wells were aspirated to dryness and bound ligand containing biotin label was quantitated.
(§3) The bound protein was detected by the addition of anti-biotin antibody conjugated to alkaline phosphatase followed by addition of substrate (p-nitrophenyl […] phosphate), and determination of the optical density of each well at […].

[1] = tested on: ADP-induced aggregation of human platelets (PRP); test: Platelet aggregation assay (Aggregation-Human/PRP/ADP); type: cell-based; conditions: human platelet rich plasma, ADP 20 μM
Procedure: In addition to the ELISA integrin binding assays described above, the Aggregation-Human/PRP/ADP Assay is useful for evaluating therapeutic compounds.
Platelet rich plasma (PRP) is prepared from healthy human volunteers for use in determining inhibition of platelet aggregation by compounds. Blood was collected via a 21 gauge butterfly cannula, using a two-syringe technique into 1/10 volume of […] trisodium citrate.
Platelet rich plasma was prepared at room temperature by centrifugation of the citrated whole blood at 100×g for 15 minutes. The PRP contained approximately 200-400,000 platelets/μl. Platelet poor plasma was prepared by centrifugation of citrated whole blood at 12,000×g for 2 minutes.
Platelet aggregation was assayed in a Chrono-log whole blood aggregometer (Chrono-log Corporation, Havertown, Pa.) using the PRP prepared above according to the manufacturers directions. Inhibition of platelet aggregation was studied by adding varying amounts of test materials followed by adenosine diphosphate (ADP, 20 μM) to stirred human PRP. Specifically, the human PRP was incubated with the compound for 1-2 min. at 37° C. prior to addition of the aggregating agent ADP.

[2] = biological target: T2, vitronectin receptor, αvβ3 (Homo sapiens, UniProt P05106+P06756); test: αvβ3 ELISA purified integrin binding assay (vitronectin binding); conditions: inhibition of biotinylated vitronectin binding to immobilized purified αvβ3
T2 construct: After purification, the receptors were each stored in 0.1% Triton X-100 at 0.1-1.0 mg/ml; from tissue
T2 sequence (P06756 31-889 limits assumed): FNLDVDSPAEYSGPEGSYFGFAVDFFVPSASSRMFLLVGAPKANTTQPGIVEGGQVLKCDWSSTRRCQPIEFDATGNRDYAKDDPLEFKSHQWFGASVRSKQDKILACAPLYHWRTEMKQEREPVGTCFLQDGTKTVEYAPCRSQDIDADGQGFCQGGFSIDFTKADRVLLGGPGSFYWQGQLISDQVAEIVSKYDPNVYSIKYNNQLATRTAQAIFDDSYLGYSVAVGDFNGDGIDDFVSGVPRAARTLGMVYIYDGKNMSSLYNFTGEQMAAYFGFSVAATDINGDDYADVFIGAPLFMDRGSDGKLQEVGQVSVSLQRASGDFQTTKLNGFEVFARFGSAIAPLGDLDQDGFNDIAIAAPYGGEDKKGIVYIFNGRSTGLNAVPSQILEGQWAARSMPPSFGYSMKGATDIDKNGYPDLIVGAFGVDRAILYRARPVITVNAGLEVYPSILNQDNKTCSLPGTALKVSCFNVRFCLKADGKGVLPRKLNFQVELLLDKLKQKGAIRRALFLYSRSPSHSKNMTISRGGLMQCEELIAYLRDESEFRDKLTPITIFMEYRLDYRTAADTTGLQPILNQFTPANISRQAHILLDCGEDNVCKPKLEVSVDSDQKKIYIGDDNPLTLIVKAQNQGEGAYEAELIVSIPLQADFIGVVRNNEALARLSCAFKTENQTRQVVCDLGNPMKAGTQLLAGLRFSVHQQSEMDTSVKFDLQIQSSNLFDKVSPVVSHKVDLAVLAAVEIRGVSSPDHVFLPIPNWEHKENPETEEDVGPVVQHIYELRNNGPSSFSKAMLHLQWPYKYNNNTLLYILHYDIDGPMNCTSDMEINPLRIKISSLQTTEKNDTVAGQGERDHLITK
T2 sequence (P06756 891-1048 partner limits assumed): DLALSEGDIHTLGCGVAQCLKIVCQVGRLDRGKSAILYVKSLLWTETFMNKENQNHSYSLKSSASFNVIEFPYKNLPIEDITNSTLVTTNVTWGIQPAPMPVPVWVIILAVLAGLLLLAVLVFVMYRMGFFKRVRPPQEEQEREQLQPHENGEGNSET
T2 sequence (P05106 27-788): as the sequence (P05106 27-788) above
Procedure: as §1, §2, §3

**Q.** What does the source list for `O=C(CNC(=O)C1CCNCC1)NCC(NS(=O)(=O)c1ccccc1)C(=O)O` (stereo not drawn) [Compound 16]?
**A.** IC50 (GPIIb-IIIa): 5 µM; IC50 [1]: 49.3 µM; IC50 [2]: > 100 µM
